# Data from patent US10550105B2 (Ribon Therapeutics Inc., priority 2018, dated 2020).
# Biological target: PARP7 (Homo sapiens (Human), UniProt Q7Z3E1)
# Assay: Enzymatic assay for inhibition of PARP7: TR-FRET displacement of biotinylated Probe A from the TIPARP active site
# Format: binding
# Details: Table A-1
# In short: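 Displacement of biotinylated Probe A from TIPARP was measured as the 665/615 nm time-resolved FRET ratio (excitation 320 nm, 90 μs delay) after a further 30 min at 25 °C. Inhibition across compound concentrations was fitted by dose-response regression, with the Hill slope free or fixed at 1 (3-parameter fit).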
# PARP7, sequence (Q7Z3E1 whole entry): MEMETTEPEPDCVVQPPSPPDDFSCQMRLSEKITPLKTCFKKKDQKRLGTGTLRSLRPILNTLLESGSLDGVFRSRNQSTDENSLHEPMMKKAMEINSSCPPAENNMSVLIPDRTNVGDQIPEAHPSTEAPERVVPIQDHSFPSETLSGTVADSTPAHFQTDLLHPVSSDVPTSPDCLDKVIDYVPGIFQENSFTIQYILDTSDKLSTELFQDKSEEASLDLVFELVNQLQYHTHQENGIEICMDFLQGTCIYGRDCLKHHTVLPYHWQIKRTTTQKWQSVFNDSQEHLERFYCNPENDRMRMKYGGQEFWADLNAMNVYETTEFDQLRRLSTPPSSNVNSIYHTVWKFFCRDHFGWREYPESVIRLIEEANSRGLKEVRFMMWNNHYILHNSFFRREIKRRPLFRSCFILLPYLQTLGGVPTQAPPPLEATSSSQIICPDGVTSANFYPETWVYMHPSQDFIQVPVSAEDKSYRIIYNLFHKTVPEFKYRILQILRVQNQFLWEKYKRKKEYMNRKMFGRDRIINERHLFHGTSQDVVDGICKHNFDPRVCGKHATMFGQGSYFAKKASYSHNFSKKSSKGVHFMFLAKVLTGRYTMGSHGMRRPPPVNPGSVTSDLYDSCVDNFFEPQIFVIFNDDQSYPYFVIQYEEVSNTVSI
row,SMILES,IC50 [nM]
1,"O=C(c1cccc(OCC2c3ccccc3CN2c2cn[nH]c(=O)c2C(F)(F)F)c1)N1CCn2nccc2C1 (stereo not drawn) [Example 404, 5-(1-((3-(4,5,6,7-Tetrahydropyrazolo[1,5-a]pyrazine-5-carbonyl)phenoxy)methyl)isoindolin-2-yl)-4-(trifluoromethyl)pyridazin-3(2H)-one]",100 to 1000
2,"O=c1[nH]ncc(N2C[C@H]3CCCN[C@H]3C2)c1C(F)(F)F [Example 497, 5-((4aR,7aR)-Octahydro-6H-pyrrolo[3,4-b]pyridin-6-yl)-4-(trifluoromethyl)pyridazin-3(2H)-one]",≥ 1000
3,"C[C@@H](COCCS(=O)(=O)N1CCN(c2ncc(C(C)(C)C)cn2)CC1)Nc1cn[nH]c(=O)c1C(F)(F)F [Example 725, (S)-5-((1-(2-((4-(5-(Tert-butyl)pyrimidin-2-yl)piperazin-1-yl)sulfonyl)ethoxy)propan-2-yl)amino)-4-(trifluoromethyl)pyridazin-3(2H)-one]",< 100
4,CN(CCOc1cn[nH]c(=O)c1C(F)(F)F)CCC(=O)N1CCN(c2ccc(C#N)cn2)CC1 [Example 516],< 100
5,"CN1CCCC1COc1cc2c(cc1F)CN(c1cn[nH]c(=O)c1C(F)(F)F)C2 (stereo not drawn) [Example 49, 5-[5-fluoro-6-[(1-methylpyrrolidin-2-yl)methoxy]-2,3-dihydro-1H-isoindol-2-yl]-4-(trifluoromethyl)-2,3-dihydropyridazin-3-one; formic acid]",< 100
6,"CC(=O)N1CCN(c2cccc3c2CN(c2cn[nH]c(=O)c2C(F)(F)F)C3)CC1 [Example 294, 5-(4-(4-Acetylpiperazin-1-yl)isoindolin-2-yl)-4-(trifluoromethyl)pyridazin-3(2H)-one]",< 100
7,"O=c1[nH]ncc(N2Cc3cccc(NC4CCCOC4)c3C2)c1C(F)(F)F (stereo not drawn) [Example 307, 5-(4-((Tetrahydro-2H-pyran-3-yl)amino)isoindolin-2-yl)-4-(trifluoromethyl)pyridazin-3(2H)-one]",100 to 1000
8,"C[C@@H](COCCC(=O)N1CCN(c2ncc(C(F)(F)F)cn2)CC1)Oc1cn[nH]c(=O)c1Cl (single isomer, unassigned) [Example 578 Isomer A]",< 100
9,"CN(c1cccc2c1CN(c1cn[nH]c(=O)c1C(F)(F)F)C2)C1CCOCC1 [Example 282, 5-(4-(Methyl(tetrahydro-2H-pyran-4-yl)amino)isoindolin-2-yl)-4-(trifluoromethyl)pyridazin-3(2H)-one]",100 to 1000
10,"CN1CCC(Oc2ccc3c(n2)CN(c2cn[nH]c(=O)c2C(F)(F)F)C3)CC1 [Example 6, 5-[2-[(1-methylpiperidin-4-yl)oxy]-5H,6H,7H-pyrrolo[3,4-b]pyridin-6-yl]-4-(trifluoromethyl)-2,3-dihydropyridazin-3-one]",100 to 1000
11,"C[C@@H]1CN(c2ncc(C(F)(F)F)cn2)CCN1C(=O)CCOC[C@H](C)Nc1cn[nH]c(=O)c1C(F)(F)F (single isomer, unassigned) [Example 619 Isomer B]",< 100
12,"O=c1[nH]ncc(N2Cc3ccncc3C2)c1C(F)(F)F [Example 280, 5-(1,3-Dihydro-2H-pyrrolo[3,4-c]pyridin-2-yl)-4-(trifluoromethyl)pyridazin-3(2H)-one]",100 to 1000
13,"O=C(CCOC[C@H](CO)Nc1cn[nH]c(=O)c1C(F)(F)F)N1CCN(c2ncc(Cl)cn2)CC1 [Example 665, (S)-5-((1-(3-(4-(5-Chloropyrimidin-2-yl)piperazin-1-yl)-3-oxopropoxy)-3-hydroxypropan-2-yl)amino)-4-(trifluoromethyl)pyridazin-3(2H)-one]",< 100
14,"CC1(C)C[C@@H](COCCC(=O)N2CCN(c3ccc(C#N)cn3)CC2)N(c2cn[nH]c(=O)c2C(F)(F)F)C1 [Example 484, (S)-6-(4-(3-((4,4-Dimethyl-1-(6-oxo-5-(trifluoromethyl)-1,6-dihydropyridazin-4-yl)pyrrolidin-2-yl)methoxy)propanoyl)piperazin-1-yl)nicotinonitrile]",< 100
15,"C[C@H](COCCC(=O)N1CCN(c2ccc(C#N)cn2)CC1)Nc1cn[nH]c(=O)c1C(F)(F)F [Example 513B, (R)-6-(4-(3-(2-(6-Oxo-5-(trifluoromethyl)-1,6-dihydropyridazin-4-ylamino)propoxy)propanoyl)piperazin-1-yl)nicotinonitrile]",100 to 1000
16,"CN(CC1c2ccccc2CN1c1cn[nH]c(=O)c1C(F)(F)F)c1cccc(C(=O)O)c1 (stereo not drawn) [Example 345, 3-(Methyl((2-(6-oxo-5-(trifluoromethyl)-1,6-dihydropyridazin-4-yl)isoindolin-1-yl)methyl)amino)benzoic acid]",≥ 1000
17,"O=c1[nH]ncc(N2Cc3cccc(OCC4CCCCO4)c3C2)c1C(F)(F)F (stereo not drawn) [Example 216, 5-(4-((Tetrahydro-2H-pyran-2-yl)methoxy)isoindolin-2-yl)-4-(trifluoromethyl)pyridazin-3(2H)-one]",< 100
18,"C[C@@H](CSCCC(=O)N1CCN(c2ncc(C(F)(F)F)cn2)CC1)Oc1cn[nH]c(=O)c1C(F)(F)F [Example 621A, (S)-5-((1-((3-Oxo-3-(4-(5-(trifluoromethyl)pyrimidin-2-yl)piperazin-1-yl)propyl)thio)propan-2-yl)oxy)-4-(trifluoromethyl)pyridazin-3(2H)-one]",100 to 1000

# Continued, values first:
row,IC50 [nM],SMILES
1,< 100,"N#Cc1ccc(N2CCN(C(=O)CCNC[C@@H]3c4ccccc4CN3c3cn[nH]c(=O)c3C(F)(F)F)CC2)nc1 [Example 146A, 6-[4-[3-([[(1S)-2-[6-oxo-5-(trifluoromethyl)-1,6-dihydropyridazin-4-yl]-2,3-dihydro-1H-isoindol-1-yl]methyl]amino)propanoyl]piperazin-1-yl]pyridine-3-carbonitrile]"
2,< 100,"O=C(c1cncc(OCC2c3ccccc3CN2c2cn[nH]c(=O)c2C(F)(F)F)c1)N1CCN(c2ccc(C(F)(F)F)cn2)CC1 (stereo not drawn) [Example 374, 4-(Trifluoromethyl)-5-(1-(((5-(4-(5-(trifluoromethyl)pyridin-2-yl)piperazine-1-carbonyl)pyridin-3-yl)oxy)methyl)isoindolin-2-yl)pyridazin-3(2H)-one]"
3,100 to 1000,"O=C(COC[C@@H]1CCCN1c1cn[nH]c(=O)c1C(F)(F)F)N1CCN(c2ccccn2)CC1 [Example 448, (S)-5-(2-((2-Oxo-2-(4-(pyridin-2-yl)piperazin-1-yl)ethoxy)methyl)pyrrolidin-1-yl)-4-(trifluoromethyl)pyridazin-3(2H)-one]"
4,≥ 1000,"O=C(C[C@H]1CC[C@H](COc2cn[nH]c(=O)c2Cl)O1)N1CCN(c2ncc(C(F)(F)F)cn2)CC1 (single isomer, unassigned) [Example 575 Isomer B]"
5,≥ 1000,"O=c1[nH]ncc(N2Cc3ccccc3C2CO)c1Cl (stereo not drawn) [Example 191, 4-Chloro-5-(1-(hydroxymethyl)isoindolin-2-yl)pyridazin-3(2H)-one]"
6,100 to 1000,"O=C(c1cccc(OCC2CCCN2c2cn[nH]c(=O)c2C(F)(F)F)c1)N1CCn2c(nnc2C(F)(F)F)C1 (stereo not drawn) [Example 436, 4-(Trifluoromethyl)-5-(2-((3-(3-(trifluoromethyl)-5,6,7,8-tetrahydro-[1,2,4]triazolo[4,3-a]pyrazine-7-carbonyl)phenoxy)methyl)pyrrolidin-1-yl)pyridazin-3(2H)-one]"
7,≥ 1000,"O=C(CCOC[C@H]1c2ccccc2CN1c1cn[nH]c(=O)c1C(F)(F)F)N1CCNCC1 [Example 418, (R)-5-(1-((3-Oxo-3-(piperazin-1-yl)propoxy)methyl)isoindolin-2-yl)-4-(trifluoromethyl)pyridazin-3(2H)-one 0.4 formic acid]"
8,< 100,"CC(=O)N1CCC(Oc2ccc3c(n2)CN(c2cn[nH]c(=O)c2C(F)(F)F)C3)CC1 [Example 333, 5-(2-((1-Acetylpiperidin-4-yl)oxy)-5,7-dihydro-6H-pyrrolo[3,4-b]pyridin-6-yl)-4-(trifluoromethyl)pyridazin-3(2H)-one]"
9,100 to 1000,"O=C(C[C@@H]1CC[C@@H](COc2cn[nH]c(=O)c2C(F)(F)F)O1)N1CCN(c2ncc(Cl)cn2)CC1 (single isomer, unassigned) [Example 565 Isomer A]"
10,100 to 1000,"O=C(c1cccc(NCC2c3ccccc3CN2c2cn[nH]c(=O)c2C(F)(F)F)c1)N1CCN(c2ccccn2)CC1 (stereo not drawn) [Example 351, 5-(1-(((3-(4-(Pyridin-2-yl)piperazine-1-carbonyl)phenyl)amino)methyl)isoindolin-2-yl)-4-(trifluoromethyl)pyridazin-3(2H)-one]"
11,< 100,"CC(=O)N1CCC(Oc2cc3c(cc2F)CN(c2cn[nH]c(=O)c2C(F)(F)F)C3)CC1 [Example 1, 5-[5-[(1-acetylpiperidin-4-yl)oxy]-6-fluoro-2,3-dihydro-1 H-isoindol-2-yl]-4-(trifluoromethyl)-2,3-dihydropyridazin-3-one]"
12,< 100,"[2H]C1([2H])N(C(=O)CCOC[C@H](C)Oc2cn[nH]c(=O)c2C(F)(F)F)C([2H])([2H])C([2H])([2H])N(c2ccc(C#N)cn2)C1([2H])[2H] [Example 714, (S)-6-(4-(3-(2-((6-Oxo-5-(trifluoromethyl)-1,6-dihydropyridazin-4-yl)oxy)propoxy)propanoyl)piperazin-1-yl-2,2,3,3,5,5,6,6-d8)nicotinonitrile]"
13,< 100,"CC[C@@H](COCCC(=O)N1CCN(c2ccc(C(F)(F)F)cn2)CC1)Nc1cn[nH]c(=O)c1C(F)(F)F [Example 587, 5-[[(2S)-1-(3-Oxo-3-[4-[5-(trifluoromethyl)pyridin-2-yl]piperazin-1-yl]propoxy)butan-2-yl]amino]-4-(trifluoromethyl)-2,3-dihydropyridazin-3-one]"
14,< 100,"N#Cc1cccnc1N1CCN(C(=O)CCOC[C@@H]2CCCN2c2cn[nH]c(=O)c2C(F)(F)F)CC1 [Example 463, (S)-2-(4-(3-((1-(6-Oxo-5-(trifluoromethyl)-1,6-dihydropyridazin-4-yl)pyrrolidin-2-yl)methoxy)propanoyl)piperazin-1-yl)nicotinonitrile]"
15,< 100,"N#Cc1ccc(N2CCN(C(=O)c3cccc(NCC4CCCN4c4cn[nH]c(=O)c4C(F)(F)F)c3)CC2)nc1 (stereo not drawn) [Example 455, 6-(4-(3-(((1-(6-Oxo-5-(trifluoromethyl)-1,6-dihydropyridazin-4-yl)pyrrolidin-2-yl)methyl)amino)benzoyl)piperazin-1-yl)nicotinonitrile]"
